This is an account of results in article PMC10739838, “Limited high-throughput screening compatibility of the phenuivirus cap-binding domain” (Scientific Reports, 2023).

SMILES strings stand for the structures. pKd: −log10 of the molar value. Values joined by “and” are separate entries in the source; they are usually repeats but may differ in a detail not shown here. Equal values may be shown once. Read-outs that look alike come from different tables or passages of the source.

In test [1] the target is T1, SFTSV CBD (Dabie bandavirus, UniProt I0DF35). The class given is binding.
T1 sequence (I0DF35 1695-1810 limits assumed): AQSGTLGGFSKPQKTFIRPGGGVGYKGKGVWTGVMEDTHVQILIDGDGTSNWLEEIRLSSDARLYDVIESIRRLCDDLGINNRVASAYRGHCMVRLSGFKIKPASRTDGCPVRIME
For test [2], the target named is T1, SFTSV CBD. The class given is binding. This is another data set of the same source.
In another test the target is human eIF4E (Homo sapiens, UniProt P06730). The class given is binding.
human eIF4E, sequence (P06730 whole entry): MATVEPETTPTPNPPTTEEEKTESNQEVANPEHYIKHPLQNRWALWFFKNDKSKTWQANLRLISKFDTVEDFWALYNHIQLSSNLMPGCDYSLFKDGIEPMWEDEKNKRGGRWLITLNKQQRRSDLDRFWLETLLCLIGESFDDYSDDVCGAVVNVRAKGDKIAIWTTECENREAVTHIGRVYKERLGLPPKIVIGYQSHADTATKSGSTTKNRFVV
Test [3] deals with T1, SFTSV CBD. The class given is binding. This is another data set of the same source.
Test [4] concerns the target T1, SFTSV CBD. As to conditions: cited from earlier work.
For test [5], the target named is T2, RVFV CBD (Rift valley fever virus, UniProt P27316). The conditions noted are these: cited from earlier work.
T2 sequence (P27316 1706-1822 limits assumed): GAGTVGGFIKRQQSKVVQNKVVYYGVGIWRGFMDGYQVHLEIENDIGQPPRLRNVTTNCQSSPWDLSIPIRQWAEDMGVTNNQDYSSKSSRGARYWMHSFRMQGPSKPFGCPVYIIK
For a further test, the target named is PB2 CBD (Influenza A virus, UniProt P31345).
PB2 CBD, sequence (P31345 318-483 limits assumed): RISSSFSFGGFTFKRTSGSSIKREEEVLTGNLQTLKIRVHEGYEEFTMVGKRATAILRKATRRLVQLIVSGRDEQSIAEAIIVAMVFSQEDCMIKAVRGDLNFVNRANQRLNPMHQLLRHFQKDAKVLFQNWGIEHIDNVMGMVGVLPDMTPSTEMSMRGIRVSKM
Test [6] has as its target T1, SFTSV CBD. As to conditions: cited from earlier work. The source holds these as a separate data set.
For test [7], the target named is T1, SFTSV CBD. The class given is binding. This is another data set of the same source.
The target in test [8] is T2, RVFV CBD. The class given is binding.

A word on the pKd: it is −log10 of the Kd, conventionally taken in molar units. On SFTSV CBD [1], `Nc1ncnc2c1ncn2[C@@H]1O[C@H](COP(=O)(O)OP(=O)(O)OP(=O)(O)O)[C@@H](O)[C@H]1O` [ATP] showed a pKd of 1.70.
Regarding `CC[N+]1=C(/C=C/C=C/C=C2/N(CCCCCC(=O)NCCNC(=O)O[C@@H]3[C@H](O)[C@@H](COP(=O)(O)OP(=O)(O)OP(=O)([O-])O)O[C@H]3n3c[n+](C)c4c(=O)[nH]c(N)nc43)c3ccc(S(=O)(=O)O)cc3C2(C)C)C(C)(C)c2cc(S(=O)(=O)[O-])ccc21` [EDA-m^7GTP-Cy5], the pKd at SFTSV CBD [2] is 4.26 and 4.49 and 4.44; on human eIF4E, 7.44 and 7.48 and 7.55.
Consider `Nc1nc2c(ncn2[C@@H]2O[C@H](COP(=O)(O)OP(=O)(O)OP(=O)(O)O)[C@@H](O)[C@H]2O)c(=O)[nH]1` [GTP], for which, on SFTSV CBD [3], the “SPR signal on injection of increasing concentrations” value was “did not result in a dose-dependent signal increase”. The compound further showed a pKd on SFTSV CBD [1] of 1.70. Also, the “Effect on thermal stability of the protein” value (from here on “Effect on thermal stability”) at SFTSV CBD [4] and on RVFV CBD [5] was “not” throughout.
Regarding `CC[N+]1=C(/C=C/C=C/C=C2/N(CCCCCC(=O)NCCOCCOCCOCCOCCC(=O)Nc3ccc(OP(=O)([O-])OP(=O)(O)OP(=O)(O)OC[C@H]4O[C@@H](n5c[n+](C)c6c(=O)[nH]c(N)nc65)[C@H](O)[C@@H]4O)cc3)c3ccc(S(=O)(=O)O)cc3C2(C)C)C(C)(C)c2cc(S(=O)(=O)[O-])ccc21` [m^7GTP-γ-aminophenyl-PEG4-Cy5], on SFTSV CBD [2], the pKd was 3.97.
Consider `Cn1c[n+]([C@@H]2O[C@H](COP(=O)([O-])OP(=O)(O)OP(=O)(O)O)[C@@H](O)[C@H]2O)c2nc(N)[nH]c(=O)c21` [m^7GTP], for which the pKd was roughly 3.00 at SFTSV CBD [3]; ~2.22 and 2.21 and 1.97 at SFTSV CBD [1]; 5.55 at PB2 CBD; 3.86 on SFTSV CBD [6]. Moreover, the “Effect on thermal stability” value at SFTSV CBD [4] and at RVFV CBD [5] was “higher thermal stability” in each case.
Consider `O=C(O)[C@H]1C2CCC(CC2)[C@@H]1Nc1nc(-c2c[nH]c3ncc(F)cc23)ncc1F` [pimodivir], for which the “Effect on thermal stability” value at SFTSV CBD [7] and on RVFV CBD [8] was “destabilization of the protein” each time.
